Like-named read-outs stand apart in the source and are kept apart here.
Experiments:
[1] = test system: inner mitochondrial membrane nonselective monovalent cation conductance (NMCC); assay type: biochemical, mouse
Description: The homogenate was centrifuged at 700 g for 5-10 min to pellet nuclei and unbroken cells. For some tissues, the first nuclear pellet was resuspended in the same solution and homogenized again to increase the yield of mitochondria. Mitochondria were collected by centrifugation of the supernatant at 8,500 g for 10 min. Mitochondria were suspended in a solution containing 140 mM sucrose, 440 mM D-mannitol, 5 mM HEPES, and 1 mM EGTA (pH adjusted to 7.2 with KOH), and then subjected to a French press at 2,000 psi to rupture the outer mitochondrial membrane (OMNI) and release the inner mitochondrial membrane (IMM) to form mitoplasts. Mitoplasts were pelleted at 10,500 g for 15 min and resuspended for storage in […] of solution containing 750 mM KCl, 100 mM HEPES and 1 mM EGTA (pH adjusted to 7.2 with KOH) to further release the IMM from the OMNI, see FIG. 1A. […] Mitochondria and mitoplasts were prepared at 0-4° C. and stored on ice for up to 5 h. Tissues were isolated from a mitochondrial calcium uniporter (MCU) knock-out mouse unless otherwise indicated.
A glass pipette recording electrode was used to form a gigaohm seal with the IMM in a bath solution containing 150 mM KCl, 10 mM HEPES, and 1 mM EGTA, pH 7.2 (adjusted with KOH). Capacitive transients were completely compensated right after the seal was formed. The patch of the IMM attached to the glass pipette recording electrode was then ruptured by high-amplitude voltage pulses (200-500 mV).
Currents were recorded using an Axopatch 200B amplifier (Molecular Devices). The current was dropped to −160 mV and then ramped up for 850 mS to +80 mV. All voltages indicated correspond to the mitochondrial matrix in respect to the bath (cytosol). Mitoplast conductance was normalized to the membrane capacitance (Cm) in all tissues examined. Current amplitudes for histograms were measured within 5 mS after stepping the membrane from 0 to −160 mV and were normalized to the total current. Whole-mitoplast control currents were recorded in a bath solution containing 150 mM HEPES, 1.5 mM EGTA, pH 7.0 adjusted with Tris base, osmolarity to 300 mmol/kg with sucrose.
For the assay, the pipette solution contained 110 mM Na-gluconate, 5 mM EGTA, 40 mM HEPES, 5 mM EDTA, and 1 mM NaCl and was tonicity adjusted to ˜350-370 mmol/kg with sucrose and pH adjusted to pH 7 with 1 M NaOH. The control bath solution contained 110 mM Na-gluconate, and 40 mM HEPES and was pH adjusted to pH 7 with 1 M NaOH. When assaying for the effect Ca^2+, 5 mM CaCl2) was added to the described bath solution.
For the DCCD assay, mitoplasts were prepared from wild-type C56BL/6 mice. The pipette solution contained 150 mM tetramethylammonium (TMA) hydroxide, 1.5 mM EGTA, 2 mM MgCl2, and 150 mM HEPES, was tonicity adjusted to ˜450 mmol/kg with sucrose and pH adjusted to pH 7 with D Gluconic Acid, and the bath solution contained 150 mM KCl, 1.5 mM EGTA, and 40 mM HEPES, and was pH adjusted to pH 7.2 with 1 M KOH. When assaying for DCCD effect, 10 μM DCCD was added to the described bath solution. […],
When assaying for inhibitor effect, […] or 5 μM CATR was added to the described bath solution.
For the Na^+ assays, the pipette solution contained 110 mM Na-gluconate, 5 mM EGTA, 40 mM HEPES, 5 mM EDTA, and 1 mM NaCl and was tonicity adjusted to ˜350-370 mmol/kg with sucrose and pH adjusted to pH 7 with 1 M NaOH. The bath solution contained 110 mM Na-gluconate, 5 mM EGTA, 40 mM HEPES, and 5 mM EDTA and was pH adjusted to pH 7 with 1 M NaOH.

[2] = log octanol/water partition coefficient; source not stated; cited from earlier work
[3] = 10 μM antimycin in bath, 125 mM K-gluconate, pH 7

**Q.** For `N/C(=N\C(=O)c1nc(Cl)c(NCc2ccc(I)cc2)nc1N)NCCCCc1ccccc1` [5m, (E)-3-amino-N-(amino((4-phenylbutyl)amino)methylene)-6-chloro-5-((4-iodobenzyl)amino)pyrazine-2-carboxamide], which “effect on monovalent cation conductance” value ([1]; 1 μM 5m in bath, 125 mM K-gluconate, pH 7) is on record?
**A.** almost completely inhibited

**Q.** Which “effect on monovalent cation conductance” value ([1]; 1 μM 5o in bath, 125 mM K-gluconate, pH 7) does the source give for `CCCCCCCCN/C(N)=N/C(=O)c1nc(Cl)c(NCc2ccc(I)cc2)nc1N` [5o, (E)-3-amino-N-(amino(octylamino)methylene)-6-chloro-5-((4-iodobenzyl)amino)pyrazine-2-carboxamide] here?
**A.** almost completely inhibited

**Q.** With `CN(CCCCCCc1ccccc1)CCCCNC(=O)c1nc(Cl)c(NCc2ccc(Cl)cc2)nc1N` [AA6, 3-amino-6-chloro-5-((4-chlorobenzyl)amino)-N-(4-(methyl(6-phenylhexyl)amino)butyl)pyrazine-2-carboxamide] as the compound, how does the “effect on monovalent cation conductance” value ([1]; 200 nM AA6 in bath, 125 mM K-gluconate, pH 7) read?
**A.** almost completely inhibited

**Q.** For `CCCCC/C=C\C/C=C\C/C=C\C/C=C\CCCC(=O)O` [AA, arachidonic acid], which “effect on monovalent cation conductance” value ([1]; […] AA in bath, 125 mM K-gluconate, pH 7) is on record?
**A.** little to no effect

**Q.** For `C=C1[C@@H]2CC[C@H]3[C@]4(C)C[C@H](O[C@@H]5O[C@H](CO)[C@@H](OS(=O)(=O)O)[C@H](OS(=O)(=O)O)[C@H]5OC(=O)CC(C)C)CC(C(=O)O)(C(=O)O)[C@H]4CC[C@]3(C2)[C@H]1O` [CATR, carboxyatractyloside], which “effect on monovalent cation conductance” value ([1]; 5 μM CATR in bath, 125 mM K-gluconate, pH 7) is on record?
**A.** little to no effect

**Q.** With `[Ca+2].[Cl-].[Cl-]` [Ca^2+, CaCl2] as the compound, how does the “effect on monovalent cation conductance” value ([1]; 5 mM CaCl2 added to bath, 110 mM Na-gluconate, no chelator in bath, pH 7) read?
**A.** inhibited

**Q.** Which “effect on monovalent cation conductance” value ([1]; 10 μM DCCD in bath, 150 mM KCl bath, TMA pipette, mitoplasts from wild-type C56BL/6 mice) does the source give for `C(=NC1CCCCC1)=NC1CCCCC1` [DCCD, dicyclohexylcarbodiimide] here?
**A.** little to no effect

**Q.** With `CCN(c1nc(N)c(C(=O)NC(=N)N)nc1Cl)C(C)C` [EIPA, 5-(N-ethyl-N-isopropyl)amiloride] as the compound, how does the Concentration [1] read?
**A.** 80 µM

**Q.** And the “effect on monovalent cation conductance” value ([1]; K+ assay (110 mM K-gluconate, pH 7), 80 μM EIPA in bath)?
**A.** significantly and almost completely inhibited

**Q.** What about the “effect on monovalent cation conductance” value ([1]; Na+ assay (110 mM Na-gluconate, pH 7), 100 μM EIPA in bath) of the same compound?
**A.** significantly and almost completely inhibited

**Q.** For `C[n+]1ccc(-c2ccccc2)cc1` [MPP+, 1-methyl-4-phenylpyridinium], which “effect on monovalent cation conductance” value ([1]; 0.5 mM MPP+ in bath, 125 mM K-gluconate, pH 7) is on record?
**A.** little to no effect

**Q.** For `CN(C)C(=N)NC(=N)N` [Metformin], which Concentration [1] is on record?
**A.** 30000 µM

**Q.** What about the “effect on monovalent cation conductance” value ([1]; pH 7) of the same compound?
**A.** almost completely inhibited

**Q.** Which logP [2] does the source give for `[H]/N=C(/N)N/C(=N/[H])NCCc1ccccc1` [Phenformin] here?
**A.** −0.83

**Q.** What about the Concentration [1] of the same compound?
**A.** 2000 µM

**Q.** What about the “effect on monovalent cation conductance” value ([1]; 1 mM phenformin in bath, 125 mM K-gluconate, pH 7) of the same compound?
**A.** almost completely inhibited

**Q.** What does the source list for `[H]/N=C(\N/C(=N/[H])Nc1ccc(Cl)cc1)NC(C)C` [Proguanil]?
**A.** logP [2]: 2.53; Concentration [1]: 100 µM; effect on monovalent cation conductance ([1]; 100 μM proguanil in bath, 125 mM K-gluconate, pH 7): almost completely inhibited

**Q.** For `C=C(C)[C@H]1Cc2c(ccc3c2O[C@@H]2COc4cc(OC)c(OC)cc4[C@@H]2C3=O)O1` [Rotenone, rotenone], which “effect on monovalent cation conductance” value ([1]; 10 μM rotenone in bath, 110 mM Na-gluconate, pH 7) is on record?
**A.** little to no effect

**Q.** Which “effect on monovalent cation conductance” value ([1]; 10 μM benzamil in bath, 125 mM K-gluconate, pH 8) does the source give for `N/C(=N\C(=O)c1nc(Cl)c(N)nc1N)NCc1ccccc1` [benzamil] here?
**A.** little to no effect

**Q.** Which “effect on monovalent cation conductance” value ([1]; 10 μM fenazaquin in bath, 110 mM Na-gluconate, pH 7) does the source give for `CC(C)(C)c1ccc(CCOc2ncnc3ccccc23)cc1` [fenazaquin] here?
**A.** little to no effect

**Q.** For `Cc1nn(C)c(Oc2ccccc2)c1/C=N/OCc1ccc(C(=O)OC(C)(C)C)cc1` [fenipiroximate], which “effect on monovalent cation conductance” value ([1]; 0.5 μM fenipiroximate in bath, 125 mM K-gluconate, pH 7) is on record?
**A.** little to no effect

**Q.** For `CO/C(=C/C(N)=O)[C@H](C)[C@H](/C=C/c1csc(-c2csc([C@@H](C)/C=C/C=C/C(C)C)n2)n1)OC` [myxothiazol], which “effect on monovalent cation conductance” value ([1]; 10 μM myxothiazol in bath, 125 mM K-gluconate, pH 7) is on record?
**A.** little to no effect

**Q.** With `CC[C@H]1/C=C/C=C/C[C@@H](C)[C@H](O)[C@@](C)(O)C(=O)[C@@H](C)[C@H](O)[C@@H](C)C(=O)[C@@H](C)[C@H](O)[C@@H](C)/C=C/C(=O)O[C@@H]2[C@H](C)[C@H](CC1)O[C@]1(CC[C@H](C)[C@H](C[C@@H](C)O)O1)[C@H]2C` [oligomycin] as the compound, how does the “effect on monovalent cation conductance” value ([1]; 10 oligomycin (unit not given) in bath, 125 mM K-gluconate, pH 7) read?
**A.** little to no effect

**Q.** Which “effect on monovalent cation conductance” value ([1]; 1 μM piericidin in bath, 110 mM K-gluconate, pH 7) does the source give for `C/C=C(\C)[C@H](O)[C@H](C)/C=C(C)/C=C/C/C(C)=C/Cc1nc(OC)c(OC)c(O)c1C` [piericidin] here?
**A.** little to no effect

**Q.** With `CCCCCCCCCCC(O)C1CCC(C2CCC(C(O)CCCCCCCCCCC(O)CC3=CC(C)OC3=O)O2)O1` (stereo not drawn) [rolliniastatin] as the compound, how does the “effect on monovalent cation conductance” value ([1]; 2 μM rolliniastatin in bath, 125 mM K-gluconate, pH 7) read?
**A.** little to no effect

**Q.** With `C/C=C(C)/C=C/C=C/[C@H](OC)[C@@H](C)[C@@H](OC)[C@@H](C)CCc1oc2c(O)c(OC)cc(OC)c2c(=O)c1C` [stigmatellin] as the compound, how does the “effect on monovalent cation conductance” value ([1]; 0.5 μM stigmatellin in bath, 125 mM K-gluconate, pH 7) read?
**A.** little to no effect

**Q.** For Tertiapin Q [TQ], which “effect on monovalent cation conductance” value ([1]; 0.5 μM TQ in bath, 125 mM K-gluconate, pH 7) is on record?
**A.** little to no effect

**Q.** With antimycin as the compound, how does the “effect on monovalent cation conductance” value [1, 3] read?
**A.** little to no effect

**Q.** What about the “uncoupling H+ current overlapping with the K+ current” value [1, 3] of the same compound?
**A.** elicited an uncoupling H^+ current

**Q.** For atpenin, which “effect on monovalent cation conductance” value ([1]; 0.2 μM or 1 μM atpenin in bath, 125 mM K-gluconate, pH 7) is on record?
**A.** little to no effect

**Q.** With bullatacin as the compound, how does the “effect on monovalent cation conductance” value ([1]; 1 μM bullatacin in bath, 125 mM K-gluconate, pH 7) read?
**A.** little to no effect
